Measurements from US11472799B2, “Serine threonine kinase (AKT) degradation / disruption compounds and methods of use” (Icahn School of Medicine at Mount Sinai, priority 2018, dated 2022).
“Also recorded” adds a separate entry of the source.

Assays:
[1] = system: colon cancer xenograft with RAS/RAF activation albeit with PIK3CA mutation; settings: alone; xenograft with RAS/RAF activation and PIK3CA mutation; cited from earlier work
[2] = phase I clinical trial (Saura et al., 2017); cited from earlier work
[3] = system: AKT; test: Western blot of AKT protein levels in PC-3 cells; format: cell-based, human; settings: 0.3 μM, 1 μM, 3 μM, or 10 μM for 24 h (FIG. 4B)
Outline: (§1)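 Lysates were immunoblotted with chemiluminescent detection for p-AKT Ser473, total AKT, p-S6 Ser240/244 and p-PRAS40 Thr246, using actin as loading control.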

[4] = system: PC-3 cells; test: Cell proliferation (IncuCyte live cell imaging) in PC-3 cells; format: cell-based, human; settings: PC-3 cells (FIG. 7)
Protocol: (§2) 1-3×10^3 PC-3 or MDA-MB-468 cells were seeded in 96-well plates in triplicates and treated at the indicated compound concentrations. Cells were monitored using the IncuCyte® live cell imaging system (Essen Bioscience™, Ann Arbor, Mich.) which was placed in a cell culture incubator operated at 37° C. and 5% CO2. Cell confluence was determined using calculations derived from phase-contrast images. The concentration for 50% of maximal inhibition of cell proliferation (GI50) values were determined by fitting to a standard four-parameter logistic using GraphPad Prism® v5.
(§3) Experiments were carried out in 96-well plates in triplicates. A total of 1-3×10^3 cells per well were grown in the presence of 1 μM of AZD5363 (Selleckchem), 1 μM of selected degrader compounds. Cells were then monitored for 3-4 days using the IncuCyte live cell imaging system (Essen BioScience, Ann Arbor, Mich., USA), which was placed in a cell culture incubator operated at 37° C. and 5% CO2. Cell confluence was determined using calculations derived from phase-contrast images. For measurement of cell death DRAQ7 (Cell Signaling #7406) at 1.5 μM was included in the medium and apoptotic red counts were measured in IncuCyte™ FLR automated incubator microscope.

[5] = system: PC-3 cells; test: Colony formation (Crystal Violet) in PC-3 cells; format: cell-based, human; settings: 0.1-10 μM for 2 weeks (FIG. 8)
Protocol: (§4) PC-3, MDA-MB-468, HCC1143, and MDA-MB-231 cells were treated with DMSO, AZD5363 or XF050-21 at 0.1 μM, 0.3 μM, 1 μM, 3 μM, or 10 μM for 2 weeks.
(§5) Cells were cultured for 12-17 days in the presence of different compounds. Media with compound was replenished every two days. At the end of the experiment, media was aspirated and viable cells were stained with 0.5% crystal violet dye.

[6] = system: AKT; test: Combination of AKT degrader and mTOR inhibitor, Western blot in BT474 cells; format: cell-based, human; settings: 24 h, combined with an mTOR inhibitor (Torin1 or Rapamycin)
Protocol: (§6) Cells were lysed in 2× sample buffer (125 mM Tris-HCl at pH 6.8, 10% βME, 2% SDS, 20% glycerol, 0.05% Bromophenol Blue, 8 M urea). Protein lysates were loaded into 4-12% Bis-Tris gels and resolved by electrophoresis. Samples were then blotted on PVDF membrane (Millipore IPVH00010) using the wet transfer technique (Invitrogen). Membranes were blocked in 5% milk-TBST for 1 hour, washed in TBST for 10 min, and incubated in primary antibody in 5% milk-TBST or 5% BSA-TBST at 4° C. for 16 h. Membranes were rinsed (3×6 min) in TBST and incubated in horseradish peroxidase-conjugated secondary antibodies in 5% milk-TBST for 1 hour and rinsed again in TBST (3×6 min). Membranes were visualized using the chemiluminescence system (Thermo 34080, 37075) on autoradiography film (Denville E3018). Primary Antibodies: R-actin (Sigma A5316), p-AKT (Ser473 CST-9721), total AKT (CST-9272), p-S6 (Ser240/244, CST-5364), p-PRAS40 (Thr246, CST-2997). Secondary Antibodies: Mouse (Thermo 31432), Rabbit (Thermo 31460).

[7] = system: AKT; test: Time course Western blot of AKT degradation in BT474 cells; format: cell-based, human
Protocol: as §6

[8] = system: MDA-MB-231 cells; test: Colony formation (Crystal Violet) in MDA-MB-231 cells; format: cell-based; settings: 0.1-10 μM for 2 weeks (FIG. 8)
Protocol: as §4, §5

[9] = system: MDA-MB-468 cells; test: Cell proliferation (IncuCyte live cell imaging) in MDA-MB-468 cells; format: cell-based; settings: MDA-MB-468 cells (FIG. 7)
Protocol: as §2, §3

[10] = system: HCC1143 cells; test: Colony formation (Crystal Violet) in HCC1143 cells; format: cell-based; settings: 0.1-10 μM for 2 weeks (FIG. 8)
Protocol: as §4, §5

[11] = system: AKT; test: Western blot of AKT protein levels in MDA-MB-468 cells; format: cell-based; settings: 0.3 μM, 1 μM, 3 μM, or 10 μM for 24 h
Protocol: as §6

[12] = system: MDA-MB-468 cells; test: Colony formation (Crystal Violet) in MDA-MB-468 cells; format: cell-based; settings: 0.1-10 μM for 2 weeks (FIG. 8)
Protocol: as §4, §5

[13] = system: AKT; test: Western blot of AKT protein levels and downstream signaling in BT474 cells; format: cell-based, human; settings: Western blot (FIGS. 1, 3, 4)
Outline: as §1

[14] = Mouse PK study, plasma exposure; format: in vivo, Swiss Albino mice
Protocol: Standard PK studies were conducted using male Swiss Albino mice. A single 75 mg/kg intraperitoneal (IP) injection of XF050-21 was evaluated. Plasma concentrations of XF050-21 reported at each of the six time points (30 min, 1 h, 2 h, 4 h, 8 h, and 12 h post dosing) are the average values from 3 test animals.

[15] = system: AKT; test: Time course Western blot of AKT degradation in PC-3 cells; format: cell-based, human; settings: PC3 cells, 1 μM
Protocol: BT474 cells and PC-3 cells were treated with DMSO or the indicated compounds at a fixed concentration of 1 μM for 1, 2, 4, 8, 12, or 24 h. […] The maximum degradation of AKT and inhibition of downstream signaling were observed after 12 h of treatment in PC-3 cells (FIG. 5B).
as §6

[16] = system: AKT; test: Western blot of AKT protein levels in U87MG cells; format: cell-based; settings: 0.3 μM, 1 μM, 3 μM, or 10 μM for 24 h
Protocol: as §6

[17] = system: AKT; test: Rescue of XF050-21 induced AKT degradation by pretreatment in BT474 cells; format: cell-based, human
Protocol: BT474 Cells were pre-treated with DMSO, VHL-1 (1 mM), MLN4924 (1 μM), MG-132 (20 μM) or AZD5363 (1 μM) for 2 h, before being treated with the 1 μM XF050-21 compounds for 24 h.
as §6

Row | Compound | efficacy in colon cancer xenograft [1] | objective tumor shrinkage [2] | AKT protein levels [3] | cell proliferation inhibition compared with AZD5363 [4] | colony formation inhibition compared with AZD5363 [5] | AKT protein levels and downstream signaling under combination treatment [6] | time point for the most significant AKT degradation ([7]; BT474 cells (FIGS. 2 and 5)) | time-dependent reduction of AKT, p-AKT, P-PRAS40 (T246), and P-S6 (S240/244) protein levels ([7]; BT474 cells, 1 μM) | colony formation inhibition compared with AZD5363 [8] | cell proliferation inhibition compared with AZD5363 [9] | colony formation inhibition compared with AZD5363 [10] | AKT protein levels [11] | colony formation inhibition compared with AZD5363 [12] | suppression of AKT protein level and AKT activity [13] | clinical observations during PK study ([14]; male Swiss Albino mice, single 75 mg/kg IP) | bioavailability in mice ([14]; single 75 mg/kg IP injection, plasma) | time-dependent reduction of AKT, p-AKT, P-PRAS40 (T246), and P-S6 (S240/244) protein levels [15] | AKT protein levels [16] | mechanism of induced AKT protein degradation [17] | rescue of AKT degradation by pretreatment ([17]; 2 h pretreatment with VHL-1, MLN4924, MG-132 or AZD5363, then 1 μM XF050-21 for 24 h)
1 | CC(C)NC[C@@H](C(=O)N1CCN(c2ncnc3c2[C@H](C)C[C@H]3O)CC1)c1ccc(Cl)cc1 [GDC0068] | not very effective | failed to result in significant objective tumor shrinkage |  |  |  |  |  |  |  |  |  |  |  |  |  |  |  |  |  | 
2 | Cc1ncsc1-c1ccc(CNC(=O)[C@@H]2C[C@@H](O)CN2C(=O)[C@@H](NC(=O)CCCCCCCCCC(=O)N2CCN(CC[C@H](NC(=O)C3(N)CCN(c4ncnc5[nH]ccc45)CC3)c3ccc(Cl)cc3)CC2)C(C)(C)C)cc1 [XF050-21, 4-amino-N-((S)-1-(4-chlorophenyl)-3-(4-(11-(((S)-1-((2S,4R)-4-hydroxy-2-((4-(4-methylthiazol-5-yl)benzyl)carbamoyl)pyrrolidin-1-yl)-3,3-dimethyl-1-oxobutan-2-yl)amino)-11-oxoundecanoyl)piperazin-1-yl)propyl)-1-(7H-pyrrolo[2,3-d]pyrimidin-4-yl)piperidine-4-carboxamide] |  |  | significantly reduced | more effective than AZD5363; also recorded: better cell proliferation inhibition activity than AZD5363 | more effective in inhibiting cancer cell proliferation than AZD5363; also recorded: better colony formation inhibition than AZD5363 | reduced AKT protein levels and inhibited downstream signaling; also recorded: significantly reduced the AKT protein levels and AKT downstream signaling | 24 h | time-dependently reduce | more effective in inhibiting cancer cell proliferation than AZD5363; also recorded: better colony formation inhibition than AZD5363 | more effective than AZD5363; also recorded: better cell proliferation inhibition activity than AZD5363 | more effective in inhibiting cancer cell proliferation than AZD5363; also recorded: better colony formation inhibition than AZD5363 | significantly reduced | more effective in inhibiting cancer cell proliferation than AZD5363; also recorded: better colony formation inhibition than AZD5363 | effective in suppressing both AKT protein level and AKT activity | no abnormal clinical observations noted | Bioavailable | time-dependently reduces | significantly reduced | mediated by hijacking the E3 ubiquitin ligase VHL | can be rescued by VHL-1, MLN4924, MG-132 or AZD5363 pretreatment; also recorded: can be blocked by pretreatment of VHL-1, MLN4924, MG132, and AZD5363; also recorded: can be rescued by pretreatment of the cells with VHL-1, MLN4924, MG132 and AZD5363
